These are literature values, as cited in patent publication US20140056804A1, “PHARMACEUTICAL COMPOUND WHICH INCLUDES CLINOPTILOLITE” (priority 2008, published 2014).

For this series the following is noted: NSAIDs such as naproxen.

For the molecule `COc1ccc2cc([C@H](C)C(=O)O)ccc2c1` [naproxen], the “patients with non-symptomatic mucosal breaks” value is reported as approximately 80%.
